Assays:
[1] = system: Jurkat HIV-luciferase clones; assay: Jurkat latency reversal assay; type: cell-based; conditions: Homo sapiens, 48 h; Jurkat latency reversal assay potency; read-out: Jurkat pEC50 (converted)
In short: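 Luminescence read-out: Steady-Glo after 48 h, 37° C, on mixed Jurkat HIV-luc clones (C16, 115, N6; 5,000 cells/well total). Cpd 14-pt 3-fold dilutions, duplicate, top 10 μM, 0.5% DMSO. EC50 + max % activation vs vehicle via 4-parameter fit.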

[2] = target: cIAP1-BIR3 (Homo sapiens (Human), UniProt Q13490); assay: BIR binding assay (FRET competition), cIAP1 BIR3; conditions: for cIAP1 BIR3 vs BIR2 separation window: fold separation (FS) for cIAP1
cIAP1-BIR3, sequence (Q13490 253-363): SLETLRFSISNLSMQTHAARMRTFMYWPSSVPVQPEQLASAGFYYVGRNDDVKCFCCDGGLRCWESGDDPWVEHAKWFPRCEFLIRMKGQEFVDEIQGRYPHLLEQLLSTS
In short: (§1)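 Each domain is run separately at its own level: 50 nM cIAP1-BIR3, 100 nM XIAP-BIR3, 325 nM for cIAP1-BIR2 or cIAP2-BIR2. Probe is a 200 nM fluorescent SMAC peptide, and the value is IC50 from FRET competition.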

[3] = target: cIAP1-BIR2 (Homo sapiens (Human), UniProt Q13490); assay: BIR binding assay (FRET competition), cIAP1 BIR2
cIAP1-BIR2, sequence (Q13490 173-257): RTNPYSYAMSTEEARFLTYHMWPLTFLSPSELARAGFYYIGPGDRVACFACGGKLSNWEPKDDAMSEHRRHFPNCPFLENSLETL
In short: as §1

[4] = target: cIAP2-BIR3 (Homo sapiens (Human), UniProt Q13489); assay: BIR binding assay (FRET competition), cIAP2 BIR3; conditions: for cIAP2 BIR3 vs BIR2 separation window: fold separation (FS) for cIAP2
cIAP2-BIR3, sequence (Q13489 238-349): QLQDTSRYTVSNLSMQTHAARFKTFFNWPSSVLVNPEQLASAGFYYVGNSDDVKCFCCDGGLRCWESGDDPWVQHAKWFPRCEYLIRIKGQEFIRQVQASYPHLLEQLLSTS

[5] = target: cIAP2-BIR2 (Homo sapiens (Human), UniProt Q13489); assay: BIR binding assay (FRET competition), cIAP2 BIR2
cIAP2-BIR2, sequence (Q13489 158-242): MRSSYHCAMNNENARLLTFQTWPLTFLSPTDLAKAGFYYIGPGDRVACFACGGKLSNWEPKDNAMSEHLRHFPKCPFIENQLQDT
In short: as §1

[6] = target: XIAP-BIR3 (Homo sapiens (Human), UniProt P98170); assay: BIR binding assay (FRET competition), XIAP BIR3; conditions: for XIAP BIR3 vs BIR2 separation window: fold separation (FS) for XIAP
XIAP-BIR3, sequence (P98170 241-356): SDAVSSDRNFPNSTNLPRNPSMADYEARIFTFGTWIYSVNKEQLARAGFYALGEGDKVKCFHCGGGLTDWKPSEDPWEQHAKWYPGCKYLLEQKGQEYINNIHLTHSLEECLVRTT
In short: as §1

[7] = target: XIAP-BIR2 (Homo sapiens (Human), UniProt P98170); assay: BIR binding assay (FRET competition), XIAP BIR2; conditions: FRET competition binding; for IC50: read-out: XIAP BIR2 (pIC50) (converted)
XIAP-BIR2, sequence (P98170 124-240): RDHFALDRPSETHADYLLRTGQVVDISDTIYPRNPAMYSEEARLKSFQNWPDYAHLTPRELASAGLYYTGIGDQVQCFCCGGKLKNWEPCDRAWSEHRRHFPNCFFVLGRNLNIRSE
In short: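 Compounds in a 15-point, 3-fold series competed with an AlexaFluor647 SMAC peptide (AVPIAQKSE, 200 nM) for 200 nM His-tagged XIAP-BIR2 over 60 min in pH 7.4 HEPES/CHAPS/DTT buffer. Eu-W1024 (2 nM) was then added for 30 min. IC50 and pIC50 were derived from the 615 nm/665 nm emission ratio by variable-slope fit.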

Row | Compound | EC50 [1] | IC50 [2] | cIAP1 BIR3 vs BIR2 separation window [2] | IC50 [3] | IC50 [4] | cIAP2 BIR3 vs BIR2 separation window [4] | IC50 [5] | IC50 [6] | XIAP BIR3 vs BIR2 separation window [6] | XIAP BIR2 (pIC50) [7] | IC50 [7]
1 | C[C@@H]1CN(CC(=O)N2CC(C)(C)c3c2cc(Cc2ccc(F)cc2)c(=O)n3C)[C@@H](CN2CCO[C@H](COc3ccc(Cc4ccc(OC[C@@H]5CN(C[C@H]6CN[C@H](C)CN6CC(=O)N6CC(C)(C)c7c6cc(Cc6ccc(F)cc6)c(=O)n7C)CCO5)cc4)cc3)C2)CN1 [Example 115, 1,1′-(2,2′-((3R,3′R,6R,6′R)-(((2S,2'S)-(((methylenebis(4,1-phenylene))bis(oxy))bis(methylene))bis(morpholine-2,4-diyl))bis(methylene))bis(3-methylpiperazine-6,1-diyl))bis(acetyl))bis(6-(4-fluorobenzyl)-3,3,4-trimethyl-1,2,3,4-tetrahydro-5H-pyrrolo[3,2-b]pyridin-5-one)] | 63.1 to 316 nM | 31.6 to 501 nM | +++ (10,000>FS>1,000) | 3160 to 10000 nM | 31.6 to 501 nM | +++ (10,000>FS>1,000) | 10000 to 51300 nM | 31.6 to 501 nM | ++ (1,000>FS>100) | ++ (5.00<pIC50<=5.50) | –
2 | C[C@@H]1CN(CC(=O)N2CC(C)(C)c3[nH]c(=O)c(Cc4ccc(F)cc4)cc32)[C@@H](CN2CCC(CCNC(=O)c3ccc(C(=O)NCCC4CCN(C[C@H]5CN[C@H](C)CN5CC(=O)N5CC(C)(C)c6[nH]c(=O)c(Cc7ccc(F)cc7)cc65)CC4)cc3)CC2)CN1 [Example 103, N^1,N^4-bis(2-(1-(((2R,5R)-1-(2-(6-(4-fluorobenzyl)-3,3-dimethyl-5-oxo-2,3,4,5-tetrahydro-1H-pyrrolo[3,2-b]pyridin-1-yl)-2-oxoethyl)-5-methylpiperazin-2-yl)methyl)piperidin-4-yl)ethyl)terephthalamide] | 63.1 to 316 nM | 7.94 to 15.8 nM | +++ (10,000>FS>1,000) | 3160 to 10000 nM | 7.94 to 15.8 nM | +++ (10,000>FS>1,000) | 3160 to 10000 nM | 7.94 to 15.8 nM | ++++ (FS>10,000) | – | 10000 to 51300 nM
3 | C[C@@H]1CN(CC(=O)N2CC(C)(C)c3[nH]c(=O)c(Cc4ccc(F)cc4)cc32)[C@@H](CN2CCO[C@H](C(=O)NCCNC(=O)[C@@H]3CN(C[C@H]4CN[C@H](C)CN4CC(=O)N4CC(C)(C)c5[nH]c(=O)c(Cc6ccc(F)cc6)cc54)CCO3)C2)CN1 [Example 128, (2S,2'S)-N,N′-(ethane-1,2-diyl)bis(4-(((2R,5R)-1-(2-(6-(4-fluorobenzyl)-3,3-dimethyl-5-oxo-2,3,4,5-tetrahydro-1H-pyrrolo[3,2-b]pyridin-1-yl)-2-oxoethyl)-5-methylpiperazin-2-yl)methyl)morpholine-2-carboxamide)] | 316 to 3310 nM | 15.8 to 31.6 nM | +++ (10,000>FS>1,000) | 3160 to 10000 nM | 7.94 to 15.8 nM | +++ (10,000>FS>1,000) | 3160 to 10000 nM | 15.8 to 31.6 nM | ++++ (FS>10,000) | – | 10000 to 51300 nM
4 | C[C@@H]1CN(CC(=O)N2CC(C)(C)c3[nH]c(=O)c(Cc4ccc(F)cc4)cc32)[C@@H](CN2CCN(C(=O)COCCOCCOCC(=O)N3CCN(C[C@H]4CN[C@H](C)CN4CC(=O)N4CC(C)(C)c5[nH]c(=O)c(Cc6ccc(F)cc6)cc54)[C@H](C)C3)C[C@H]2C)CN1 (stereo in doubt) [Example 6, 1,1′-(2,2′-((3R,3′R,6R,6′R)-(((2R,2′R)-(2,2′-((oxybis(ethane-2,1-diyl))bis(oxy))bis(acetyl))bis(2-methylpiperazine-4,1-diyl))bis(methylene))bis(3-methylpiperazine-6,1-diyl))bis(acetyl))bis(6-(4-fluorobenzyl)-3,3-dimethyl-1,2,3,4-tetrahydro-5H-pyrrolo[3,2-b]pyridin-5-one)] | 63.1 to 316 nM | 1.38 to 7.94 nM | +++ (10,000>FS>1,000) | 22.4 to 1000 nM | 1.38 to 7.94 nM | +++ (10,000>FS>1,000) | 22.4 to 1000 nM | 1.38 to 7.94 nM | ++++ (FS>10,000) | – | 10000 to 51300 nM

— US20250326771A1, “PIPERAZINE DERIVATIVES USEFUL IN HIV THERAPY” (VIIV HEALTHCARE COMPANY, priority 2022, published 2025)
